# From patent US20260042755A1, “GPR6 INVERSE AGONISTS” (MapLight Therapeutics, Inc., priority 2022, published 2026)
# How the values were obtained:
# GPR6 = target: T1, GPR6 (Homo sapiens, UniProt P46095); assay: GPR6 antagonist functional cAMP assay (LANCE Ultra cAMP TR-FRET, CHO cells stably expressing GPR6); type: cell-based; conditions: CHO cells stably expressing GPR6, cAMP assay (Example 24)
# T1 construct: expressed in transfected cells; host or cells: CHO cells
# Outline: (§1)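 Compounds, at 0.1% final DMSO, acted on the cells for 45 minutes at 37 °C in the presence of the phosphodiesterase inhibitor Ro 20-1724 (150 μM). After lysis and detection, plates were shaken 1 h at room temperature and emission at 665 nm was recorded. Normalized data gave IC50 values.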
# GPR3 = target: T2, GPR3 (Homo sapiens, UniProt P46089); assay: GPR3 antagonist functional cAMP assay (LANCE Ultra cAMP TR-FRET, CHO cells stably expressing GPR3); type: cell-based; conditions: CHO cells stably expressing GPR3, cAMP assay (Example 24)
# T2 construct: expressed in transfected cells; host or cells: CHO cells
# T2 sequence (P46089 whole entry, species assumed): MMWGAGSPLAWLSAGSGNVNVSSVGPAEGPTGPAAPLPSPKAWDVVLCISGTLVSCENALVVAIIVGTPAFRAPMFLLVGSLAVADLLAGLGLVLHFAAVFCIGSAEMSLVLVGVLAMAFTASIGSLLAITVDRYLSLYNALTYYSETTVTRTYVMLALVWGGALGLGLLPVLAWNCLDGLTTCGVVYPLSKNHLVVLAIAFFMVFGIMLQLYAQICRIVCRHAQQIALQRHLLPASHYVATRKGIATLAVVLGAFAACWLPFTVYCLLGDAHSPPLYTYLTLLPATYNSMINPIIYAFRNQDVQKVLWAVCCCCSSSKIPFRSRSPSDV
# Outline: as §1
# T1 sequence (P46095 whole entry): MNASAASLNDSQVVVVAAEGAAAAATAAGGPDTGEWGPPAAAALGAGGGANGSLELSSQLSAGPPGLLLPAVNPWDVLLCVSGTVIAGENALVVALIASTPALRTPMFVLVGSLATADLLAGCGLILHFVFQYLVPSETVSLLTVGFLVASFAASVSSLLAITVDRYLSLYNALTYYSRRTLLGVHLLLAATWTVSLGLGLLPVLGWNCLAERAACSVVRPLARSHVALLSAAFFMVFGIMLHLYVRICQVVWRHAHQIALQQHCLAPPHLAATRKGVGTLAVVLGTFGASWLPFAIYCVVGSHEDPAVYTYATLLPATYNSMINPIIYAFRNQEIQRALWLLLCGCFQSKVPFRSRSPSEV
IC50 (GPR6) [nM],IC50 (GPR3) [nM],SMILES
1000 to 30000,1000 to 30000,"Fc1ccc(OC2CCN(c3nc4c(nc3-c3cn[nH]c3)CNCC4)CC2)c(F)c1 [Compound 124, 4-(2,4-difluorophenoxy)-1-[3-(1H-pyrazol-4-yl)-5H,6H,7H,8H-pyrido[3,4-b]pyrazin-2-yl]piperidine]"
1000 to 30000,1000 to 30000,"CC(=O)N1CCc2nc(N3CCC(Oc4ccc(F)cc4F)CC3)c(-c3cccc4nccn34)nc2C1 [Compound 129, 1-{2-[4-(2,4-difluorophenoxy)piperidin-1-yl]-3-{imidazo[1,2-a]pyridin-5-yl}-5H,6H,7H,8H-pyrido[3,4-b]pyrazin-6-yl}ethan-1-one]"
1000 to 30000,1000 to 30000,"CNC(=O)c1cccc(-c2nc3c(nc2N2CCC(Oc4ccc(F)cc4F)CC2)CCN(C(C)=O)C3)n1 [Compound 132, 6-{6-acetyl-2-[4-(2,4-difluorophenoxy)piperidin-1-yl]-5H,6H,7H,8H-pyrido[3,4-b]pyrazin-3-yl}-N-methylpyridine-2-carboxamide]"
1000 to 30000,1000 to 30000,"CC(=O)N1CCc2nc(N3CCC(Oc4ccc(F)cc4F)CC3)c(-c3cnn(C4CNC4)c3)nc2C1 [Compound 134, 1-{3-[1-(azetidin-3-yl)-1H-pyrazol-4-yl]-2-[4-(2,4-difluorophenoxy)piperidin-1-yl]-5H,6H,7H,8H-pyrido[3,4-b]pyrazin-6-yl}ethan-1-one]"
100 to 1000,1000 to 30000,"CC(=O)N1CCc2nc(N3CCC(Oc4ccc(F)cc4F)CC3)c(-c3cn[nH]c3F)nc2C1 [Compound 135, 1-(2-(4-(2,4-difluorophenoxy)piperidin-1-yl)-3-(5-fluoro-1H-pyrazol-4-yl)-7,8-dihydropyrido[3,4-b]pyrazin-6(5H)-yl)ethanone]"
100 to 1000,1000 to 30000,"CC(=O)N1CCc2nc(N3CCC(Oc4ccc(F)cc4F)CC3)c(-c3cccc(Cl)n3)nc2C1 [Compound 137, 1-(3-(6-chloropyridin-2-yl)-2-(4-(2,4-difluorophenoxy)piperidin-1-yl)-7,8-dihydropyrido[3,4-b]pyrazin-6(5H)-yl)ethanone]"
1000 to 30000,1000 to 30000,"CC(=O)N1CCc2nc(N3CCC(Oc4ccc(F)cc4F)CC3)c(-c3cnn(CCN(C)C)c3)nc2C1 [Compound 138, 1-{2-[4-(2,4-difluorophenoxy)piperidin-1-yl]-3-{1-[2-(dimethylamino)ethyl]-1H-pyrazol-4-yl}-5H,6H,7H,8H-pyrido[3,4-b]pyrazin-6-yl}ethan-1-one]"
1000 to 30000,1000 to 30000,"OCCN1CCc2nc(N3CCC(Oc4ccc(F)cc4F)CC3)c(-c3cnn(C4CCCCO4)c3)nc2C1 (centres unmarked) [Compound 140, 2-{2-[4-(2,4-difluorophenoxy)piperidin-1-yl]-3-[1-(oxan-2-yl)-1H-pyrazol-4-yl]-5H,6H,7H,8H-pyrido[3,4-b]pyrazin-6-yl}ethan-1-ol]"
1000 to 30000,1000 to 30000,"OCCN1CCc2nc(N3CCC(Oc4ccc(F)cc4F)CC3)c(-c3cn[nH]c3)nc2C1 [Compound 141, 2-{2-[4-(2,4-difluorophenoxy)piperidin-1-yl]-3-(1H-pyrazol-4-yl)-5H,6H,7H,8H-pyrido[3,4-b]pyrazin-6-yl}ethan-1-ol]"
1000 to 30000,1000 to 30000,"COCCN1CCc2nc(N3CCC(Oc4ccc(F)cc4F)CC3)c(-c3cnn(C4CCCCO4)c3)nc2C1 (centres unmarked) [Compound 142, 4-(2,4-difluorophenoxy)-1-[6-(2-methoxyethyl)-3-[1-(oxan-2-yl)-1H-pyrazol-4-yl]-5H,6H,7H,8H-pyrido[3,4-b]pyrazin-2-yl]piperidine]"
1000 to 30000,1000 to 30000,"CNC(=O)C(C)N1CCc2nc(N3CCC(Oc4ccc(F)cc4F)CC3)c(-c3cnn(C4CCCCO4)c3)nc2C1 (centres unmarked) [Compound 146, 2-{2-[4-(2,4-difluorophenoxy)piperidin-1-yl]-3-[1-(oxan-2-yl)-1H-pyrazol-4-yl]-5H,6H,7H,8H-pyrido[3,4-b]pyrazin-6-yl}-N-methylpropanamide]"
1000 to 30000,1000 to 30000,"CNC(=O)C(C)N1CCc2nc(N3CCC(Oc4ccc(F)cc4F)CC3)c(-c3cn[nH]c3)nc2C1 (centres unmarked) [Compound 147, 2-{2-[4-(2,4-difluorophenoxy)piperidin-1-yl]-3-(1H-pyrazol-4-yl)-5H,6H,7H,8H-pyrido[3,4-b]pyrazin-6-yl}-N-methylpropanamide]"

# The next lines start with the compound.
SMILES,IC50 (GPR6) [nM],IC50 (GPR3) [nM]
"CCS(=O)(=O)N1CCc2nc(N3CCC(Oc4ccc(F)cc4F)CC3)c(-c3cn[nH]c3)nc2C1 [Compound 123, 4-(2,4-difluorophenoxy)-1-[6-(ethanesulfonyl)-3-(1H-pyrazol-4-yl)-5H,6H,7H,8H-pyrido[3,4-b]pyrazin-2-yl]piperidine]",100 to 1000,1000 to 30000
"COC(=O)N1CCc2nc(N3CCC(Oc4ccc(F)cc4F)CC3)c(-c3cnn(C4CCCCO4)c3)nc2C1 (centres unmarked) [Compound 125, methyl 2-[4-(2,4-difluorophenoxy)piperidin-1-yl]-3-[1-(oxan-2-yl)-1H-pyrazol-4-yl]-5H,6H,7H,8H-pyrido[3,4-b]pyrazine-6-carboxylate]",100 to 1000,1000 to 30000
"COc1ccc(-c2nc3c(nc2N2CCC(Oc4ccc(F)cc4F)CC2)CCN(C(C)=O)C3)cn1 [Compound 126, 1-{2-[4-(2,4-difluorophenoxy)piperidin-1-yl]-3-(6-methoxypyridin-3-yl)-5H,6H,7H,8H-pyrido[3,4-b]pyrazin-6-yl}ethan-1-one]",100 to 1000,1000 to 30000
"Cn1cc(-c2nc3cnccc3nc2N2CCN(Cc3ccc(F)cc3F)C(=O)C2)cn1 [Compound 127, 1-[(2,4-difluorophenyl)methyl]-4-[3-(1-methyl-1H-pyrazol-4-yl)pyrido[3,4-b]pyrazin-2-yl]piperazin-2-one]",≥ 30000,≥ 30000
"Cn1cc(-c2nc3cnccc3nc2N2CCN(C(=O)c3ccc(F)cc3F)CC2)cn1 [Compound 128, (2,4-difluorophenyl)(4-(3-(1-methyl-1H-pyrazol-4-yl)pyrido[3,4-b]pyrazin-2-yl)piperazin-1-yl)methanone]",1000 to 30000,≥ 30000
"Fc1ccc(-c2ncc3n2CCN(c2nc4ccncc4nc2-c2cn[nH]c2)C3)c(F)c1 [Compound 130, 4-{2-[3-(2,4-difluorophenyl)-5H,6H,7H,8H-imidazo[1,5-a]pyrazin-7-yl]pyrido[3,4-b]pyrazin-3-yl}-1H-pyrazole]",≥ 30000,≥ 30000
"CC(=O)N1CCc2nc(N3CCC(Oc4ccc(F)cc4F)CC3)c(-c3cccc(C(=O)N(C)C)n3)nc2C1 [Compound 131, 6-(6-acetyl-2-(4-(2,4-difluorophenoxy)piperidin-1-yl)-5,6,7,8-tetrahydropyrido[3,4-b]pyrazin-3-yl)-N,N-dimethylpicolinamide]",1000 to 30000,1000 to 30000
"CC(=O)N1CCc2nc(N3CCC(Oc4ccc(F)cc4F)CC3)c(-c3cccc(CO)n3)nc2C1 [Compound 133, 1-(2-(4-(2,4-difluorophenoxy)piperidin-1-yl)-3-(6-(hydroxymethyl)pyridin-2-yl)-7,8-dihydropyrido[3,4-b]pyrazin-6(5H)-yl)ethan-1-one]",1000 to 30000,1000 to 30000
"CC(=O)N1CCc2nc(N3CCC(Oc4ccc(F)cc4F)CC3)c(-c3cncc(Cl)c3)nc2C1 [Compound 136, 1-[3-(5-chloropyridin-3-yl)-2-[4-(2,4-difluorophenoxy)piperidin-1-yl]-5H,6H,7H,8H-pyrido[3,4-b]pyrazin-6-yl]ethan-1-one]",100 to 1000,1000 to 30000
"CN1CCc2nc(N3CCC(Oc4ccc(F)cc4F)CC3)c(-c3cn[nH]c3)nc2C1 [Compound 139, 4-(2,4-difluorophenoxy)-1-[6-methyl-3-(1H-pyrazol-4-yl)-5H,6H,7H,8H-pyrido[3,4-b]pyrazin-2-yl]piperidine]",1000 to 30000,1000 to 30000
"COCCN1CCc2nc(N3CCC(Oc4ccc(F)cc4F)CC3)c(-c3cn[nH]c3)nc2C1 [Compound 143, 4-(2,4-difluorophenoxy)-1-[6-(2-methoxyethyl)-3-(1H-pyrazol-4-yl)-5H,6H,7H,8H-pyrido[3,4-b]pyrazin-2-yl]piperidine]",100 to 1000,1000 to 30000
"CNC(=O)CN1CCc2nc(N3CCC(Oc4ccc(F)cc4F)CC3)c(-c3cnn(C4CCCCO4)c3)nc2C1 (centres unmarked) [Compound 144, 2-{2-[4-(2,4-difluorophenoxy)piperidin-1-yl]-3-[1-(oxan-2-yl)-1H-pyrazol-4-yl]-5H,6H,7H,8H-pyrido[3,4-b]pyrazin-6-yl}-N-methylacetamide]",1000 to 30000,1000 to 30000
"CNC(=O)CN1CCc2nc(N3CCC(Oc4ccc(F)cc4F)CC3)c(-c3cn[nH]c3)nc2C1 [Compound 145, 2-{2-[4-(2,4-difluorophenoxy)piperidin-1-yl]-3-(1H-pyrazol-4-yl)-5H,6H,7H,8H-pyrido[3,4-b]pyrazin-6-yl}-N-methylacetamide]",1000 to 30000,1000 to 30000
"COCC(=O)N1CCc2nc(N3CCC(Oc4ccc(F)cc4F)CC3)c(-c3cn[nH]c3)nc2C1 [Compound 148, 1-{2-[4-(2,4-difluorophenoxy)piperidin-1-yl]-3-(1H-pyrazol-4-yl)-5H,6H,7H,8H-pyrido[3,4-b]pyrazin-6-yl}-2-methoxyethan-1-one]",< 100,1000 to 30000
"O=C(CN1CCOCC1)N1CCc2nc(N3CCC(Oc4ccc(F)cc4F)CC3)c(-c3cn[nH]c3)nc2C1 [Compound 149, 1-{2-[4-(2,4-difluorophenoxy)piperidin-1-yl]-3-(1H-pyrazol-4-yl)-5H,6H,7H,8H-pyrido[3,4-b]pyrazin-6-yl}-2-(morpholin-4-yl)ethan-1-one]",100 to 1000,1000 to 30000
"CC(C)S(=O)(=O)N1CCc2nc(N3CCC(Oc4ccc(F)cc4F)CC3)c(-c3cn[nH]c3)nc2C1 [Compound 150, 4-(2,4-difluorophenoxy)-1-[6-(propane-2-sulfonyl)-3-(1H-pyrazol-4-yl)-5H,6H,7H,8H-pyrido[3,4-b]pyrazin-2-yl]piperidine]",< 100,1000 to 30000
